Test results from patent US3974268A, “Bone-seeking technetium-99m imidodiphosphonate complex” (priority 1975, dated 1976).
Where two headings read alike, the source gives them in different places.

Legend:
[1] = cited from earlier work
[2] = Acute toxicity (LD 50/30) by serial injection of graduated doses; format: in vivo; settings: mice and rabbits
Method: A toxicological study was conducted in both mice and rabbits by serial injection of graduated doses and the acute toxicity of imidodiphosphonate (LD 50/30) was determined to be 45-50 mg imidodiphosphonic acid per kilogram body weight.

[3] = 2 hours, rabbits, derived from Subramanian et al references

| Compound | 99mTc/85Sr ratio calculated from specific concentrations, Average Bone [1, 3] | 99mTc/85Sr ratio calculated from specific concentrations, Blood [1, 3] | 99mTc/85Sr ratio calculated from specific concentrations, Femur [1, 3] | 99mTc/85Sr ratio calculated from specific concentrations, Kidney [1, 3] | 99mTc/85Sr ratio calculated from specific concentrations, Liver [1, 3] | 99mTc/85Sr ratio calculated from specific concentrations, Marrow [1, 3] | 99mTc/85Sr ratio calculated from specific concentrations, Muscle [1, 3] | 99mTc/85Sr ratio calculated from specific concentrations, Pelvis [1, 3] | 99mTc/85Sr ratio calculated from specific concentrations, Spine [1, 3] | 99mTc/85Sr ratio calculated from specific concentrations, Tibia [1, 3] | further results |
| --- | --- | --- | --- | --- | --- | --- | --- | --- | --- | --- | --- |
| O=P(O)(O)CN(CCN(CP(=O)(O)O)CP(=O)(O)O)CCN(CP(=O)(O)O)CP(=O)(O)O (99mTc complex, metal not drawn) [DTPMP, Diethylene Triamino Penta (Methylene Phosphonate)] |  |  |  |  |  |  |  |  |  |  | 99mTc/85Sr ratio calculated from specific concentrations, Average Bone ([1]; rabbit, in vivo): 0.467; 99mTc/85Sr ratio calculated from specific concentrations, Blood ([1]; rabbit, in vivo): 0.461; 99mTc/85Sr ratio calculated from specific concentrations, Femur ([1]; rabbit, in vivo): 0.419; 99mTc/85Sr ratio calculated from specific concentrations, Kidney ([1]; rabbit, in vivo): 3.82; 99mTc/85Sr ratio calculated from specific concentrations, Liver ([1]; rabbit, in vivo): 0.544; 99mTc/85Sr ratio calculated from specific concentrations, Marrow ([1]; rabbit, in vivo): 0.547; 99mTc/85Sr ratio calculated from specific concentrations, Muscle ([1]; rabbit, in vivo): 0.221; 99mTc/85Sr ratio calculated from specific concentrations, Pelvis ([1]; rabbit, in vivo): 0.627; 99mTc/85Sr ratio calculated from specific concentrations, Spine ([1]; rabbit, in vivo): 0.415; 99mTc/85Sr ratio calculated from specific concentrations, Tibia ([1]; rabbit, in vivo): 0.384 |
| O=P(O)(O)OP(=O)(O)O [Pyro Phosphate] |  |  |  |  |  |  |  |  |  |  | 99mTc/85Sr ratio calculated from specific concentrations, Average Bone ([1]; rabbit, in vivo): 0.812; 99mTc/85Sr ratio calculated from specific concentrations, Blood ([1]; rabbit, in vivo): 0.703; 99mTc/85Sr ratio calculated from specific concentrations, Femur ([1]; rabbit, in vivo): 0.710; 99mTc/85Sr ratio calculated from specific concentrations, Kidney ([1]; rabbit, in vivo): 2.81; 99mTc/85Sr ratio calculated from specific concentrations, Liver ([1]; rabbit, in vivo): 0.779; 99mTc/85Sr ratio calculated from specific concentrations, Marrow ([1]; rabbit, in vivo): 0.726; 99mTc/85Sr ratio calculated from specific concentrations, Muscle ([1]; rabbit, in vivo): 0.365; 99mTc/85Sr ratio calculated from specific concentrations, Pelvis ([1]; rabbit, in vivo): 0.918; 99mTc/85Sr ratio calculated from specific concentrations, Spine ([1]; rabbit, in vivo): 0.827; 99mTc/85Sr ratio calculated from specific concentrations, Tibia ([1]; rabbit, in vivo): 0.694 |
| Ethylene Hydroxy Diphosphonate [EHDP] | 0.832 | 0.362 | 0.796 | 3.53 | 0.954 | 0.814 | 0.172 | 0.913 | 0.801 | 0.798 |  |
| O=P(O)(O)CN(CCCCCCN(CP(=O)(O)O)CP(=O)(O)O)CP(=O)(O)O (99mTc complex, metal not drawn) [HMDTMP, Hexamethylene Diamino Tetra (Methylene Phosphonate)] | 0.456 | 0.703 | 0.434 | 7.06 | 0.855 | 0.713 | 0.407 | 0.516 | 0.428 | 0.437 |  |
| Poly Phosphate | 0.87 | 1.48 | 0.826 | 9.46 | 2.61 | 2.95 | 0.623 | 1.01 | 0.82 | 0.66 |  |
| Amino Ethylne Diphosphonate [AEDP] | 0.648 | 0.416 | 0.641 | 3.71 | 0.766 | 0.852 | 0.135 | 0.693 | 0.618 | 0.641 |  |
| imidodiphosphonic acid [imidodiphosphonate] |  |  |  |  |  |  |  |  |  |  | acute toxicity (LD 50/30) [2]: 45-50 mg imidodiphosphonic acid per kilogram body weight |
